Measurements: PubChem BioAssay AID248 (DTP/NCI, 2004)
Several values for one entry are separate records, joined by “and”; a condition that tells them apart may be missing. Equal values may be shown once. Toxic doses and inconclusive results are not listed. Cut-off read from the data, not from the text of the source: active = T/C of 150% or more; inactive = T/C below 125%.

System: L1210 leukemia ip in BDF1 mice, survival T/C
Test: NCI In Vivo Anticancer Drug Screen. Data for tumor model L1210 Leukemia (intraperitoneal) in B6D2F1 (BDF1) mice
Details: endpoint: mean survival time, higher = longer survival
Procedure, shortened: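 Transplanted-tumor mice were given test agent; controls received vehicle only. Survival readings from the two groups were divided (treated over control).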

[1] = dose: 100.0 mg/kg/injection, schedule: Q01DX009 (ip), vehicle: saline
[2] = dose: 100.0 mg/kg/injection, schedule: Q04DX003 (ip), vehicle: saline
[3] = dose: 200.0 mg/kg/injection, schedule: Q04DX003 (ip), vehicle: saline
[4] = dose: 100.0 mg/kg/injection, schedule: Q01DX001 (ip), vehicle: saline with Tween-80
[5] = dose: 200.0 mg/kg/injection, schedule: Q01DX001 (ip), vehicle: saline with Tween-80
[6] = dose: 400.0 mg/kg/injection, schedule: Q01DX001 (ip), vehicle: saline with Tween-80
[7] = dose: 400.0 mg/kg/injection, schedule: Q04DX003 (ip), vehicle: saline
[8] = dose: 50.0 mg/kg/injection, schedule: Q01DX001 (ip), vehicle: saline
[9] = dose: 100.0 mg/kg/injection, schedule: Q01DX001 (ip), vehicle: saline
[10] = dose: 100.0 mg/kg/injection, schedule: Q04DX002 (ip), vehicle: Klucel (hydroxypropylcellulose) (HPC)
[11] = dose: 200.0 mg/kg/injection, schedule: Q04DX002 (ip), vehicle: Klucel (hydroxypropylcellulose) (HPC)
[12] = dose: 50.0 mg/kg/injection, schedule: Q01DX009 (ip), vehicle: Klucel (hydroxypropylcellulose) (HPC)

Measured: T/C

O=C(c1ccccc1)N1CCCCC1
inactive: [1] 95 % of control | [2] 95 % of control | dose: 200.0 mg/kg/injection, schedule: Q01DX009 (ip), vehicle: saline 95 % of control | [3] 94 % of control

O=C1c2ccccc2C(=O)N1Cc1nc(=S)[nH][nH]1
inactive: [4] 100 % of control | [5] 97 % of control | [6] 97 % of control

CN(C(=N)N)c1ccc(C(=O)Oc2ccc([N+](=O)[O-])cc2)cc1
inactive: dose: 50.0 mg/kg/injection, schedule: Q01DX009 (ip), vehicle: water 90 % of control | dose: 100.0 mg/kg/injection, schedule: Q01DX009 (ip), vehicle: water 97 % of control and 105 % of control | dose: 100.0 mg/kg/injection, schedule: Q04DX003 (ip), vehicle: water 103 % of control | dose: 200.0 mg/kg/injection, schedule: Q01DX009 (ip), vehicle: water 96 % of control and 100 % of control | dose: 200.0 mg/kg/injection, schedule: Q04DX003 (ip), vehicle: water 100 % of control

c1ccc(-c2cnc(-c3ccccc3)cn2)cc1
inactive: dose: 25.6 mg/kg/injection, schedule: Q04DX002 (ip), vehicle: saline with Tween-80 112 % of control | dose: 64.0 mg/kg/injection, schedule: Q04DX002 (ip), vehicle: saline with Tween-80 96 % of control | dose: 160.0 mg/kg/injection, schedule: Q04DX002 (ip), vehicle: saline with Tween-80 93 % of control | dose: 400.0 mg/kg/injection, schedule: Q04DX002 (ip), vehicle: saline with Tween-80 104 % of control

CCOC(=O)c1[nH]c(C)c(C(=O)OCC)c1-c1ccccc1
inactive: [4] 98 % of control | [5] 106 % of control | [6] 100 % of control

O=C(O)c1cc([N+](=O)[O-])ccc1Oc1cccc([N+](=O)[O-])c1
inactive: dose: 222.0 mg/kg/injection, schedule: Q01DX Z (ip), vehicle: methylcellulose (MC) 93 % of control | dose: 333.0 mg/kg/injection, schedule: Q01DX Z (ip), vehicle: methylcellulose (MC) 90 % of control | dose: 500.0 mg/kg/injection, schedule: Q01DX Z (ip), vehicle: methylcellulose (MC) 93 % of control

CC(CO)(CO)[N+](=O)[O-]
inactive: [2] 101 % of control | [3] 96 % of control | [7] 93 % of control

CN(C)c1ccc(C(=C2C=CC(=[N+](C)C)C=C2)c2ccccc2Cl)cc1
inactive: [8] 92 % of control | [9] 92 % of control

C(/C=C/c1ccccc1)=C\c1ccccc1
inactive: [8] 104 % of control | [9] 104 % of control | dose: 200.0 mg/kg/injection, schedule: Q01DX001 (ip), vehicle: saline 104 % of control | dose: 400.0 mg/kg/injection, schedule: Q01DX001 (ip), vehicle: saline 104 % of control

CN=C(N)c1ccc(N=C(N)c2ccc(N=C(N)c3ccc(C(N)=NC)cc3)cc2)cc1
inactive: dose: 3.7 mg/kg/injection, schedule: Q01DX001 (ip), vehicle: water 108 % of control | dose: 5.3 mg/kg/injection, schedule: Q01DX001 (ip), vehicle: water 103 % of control | dose: 8.0 mg/kg/injection, schedule: Q01DX001 (ip), vehicle: water 102 % of control | dose: 12.0 mg/kg/injection, schedule: Q01DX001 (ip), vehicle: water 108 % of control

[CH3][Pb]([CH3])([CH3])[O]C(=O)CCl
inactive: dose: 0.39 mg/kg/injection, schedule: Q01DX009 (ip), vehicle: saline with Tween-80 97 % of control | dose: 0.78 mg/kg/injection, schedule: Q01DX009 (ip), vehicle: saline with Tween-80 97 % of control | dose: 1.56 mg/kg/injection, schedule: Q01DX009 (ip), vehicle: saline with Tween-80 95 % of control and 115 % of control

C1CC[N+]2=C(C1)OCCC2
inactive: dose: 30.0 mg/kg/injection, schedule: Q01DX009 (ip), vehicle: saline 93 % of control | dose: 44.0 mg/kg/injection, schedule: Q01DX009 (ip), vehicle: saline 100 % of control | dose: 60.0 mg/kg/injection, schedule: Q01DX009 (ip), vehicle: saline 106 % of control | dose: 66.0 mg/kg/injection, schedule: Q01DX009 (ip), vehicle: saline 103 % of control | [1] 102 % of control and 103 % of control | [2] 101 % of control | dose: 150.0 mg/kg/injection, schedule: Q01DX009 (ip), vehicle: saline 100 % of control and 104 % of control | [3] 101 % of control | [7] 91 % of control

O=C1c2cccc3c([N+](=O)[O-])ccc(c23)C(=O)N1Cc1cccnc1
inactive: dose: 25.0 mg/kg/injection, schedule: Q04DX002 (ip), vehicle: Klucel (hydroxypropylcellulose) (HPC) 106 % of control | dose: 50.0 mg/kg/injection, schedule: Q04DX002 (ip), vehicle: Klucel (hydroxypropylcellulose) (HPC) 100 % of control | [10] 103 % of control and 86 % of control | [11] 101 % of control

Cc1nonc1C(=O)O
inactive: dose: 100.0 mg/kg/injection, schedule: Q04DX002 (ip), vehicle: saline 102 % of control | dose: 200.0 mg/kg/injection, schedule: Q04DX002 (ip), vehicle: saline 87 % of control | dose: 400.0 mg/kg/injection, schedule: Q04DX002 (ip), vehicle: saline 98 % of control

C#CC(=O)OC
inactive: dose: 0.78 mg/kg/injection, schedule: Q01DX009 (ip), vehicle: saline 103 % of control | dose: 1.56 mg/kg/injection, schedule: Q01DX009 (ip), vehicle: saline 103 % of control | dose: 1.56 mg/kg/injection, schedule: Q04DX003 (ip), vehicle: saline 103 % of control | dose: 3.12 mg/kg/injection, schedule: Q01DX009 (ip), vehicle: saline 97 % of control | dose: 3.12 mg/kg/injection, schedule: Q04DX003 (ip), vehicle: saline 95 % of control | dose: 4.6 mg/kg/injection, schedule: Q01DX009 (ip), vehicle: saline 98 % of control | dose: 6.25 mg/kg/injection, schedule: Q04DX003 (ip), vehicle: saline 94 % of control | dose: 7.0 mg/kg/injection, schedule: Q01DX009 (ip), vehicle: saline 93 % of control | dose: 10.0 mg/kg/injection, schedule: Q01DX009 (ip), vehicle: saline 101 % of control

Cc1n(CCBr)c([N+](=O)[O-])c[n+]1C1N=C(c2ccccc2Cl)c2cc(Cl)ccc2NC1=O (stereo unspecified)
inactive: [12] 86 % of control | dose: 200.0 mg/kg/injection, schedule: Q01DX009 (ip), vehicle: Klucel (hydroxypropylcellulose) (HPC) 89 % of control

Cc1cc(=O)[nH]c(N2C(=O)c3ccccc3C2=O)n1
inactive: dose: 25.0 mg/kg/injection, schedule: Q04DX003 (ip), vehicle: Klucel (hydroxypropylcellulose) (HPC) 99 % of control | dose: 50.0 mg/kg/injection, schedule: Q04DX003 (ip), vehicle: Klucel (hydroxypropylcellulose) (HPC) 102 % of control

O=C(O)c1c2c(nc3ccccc13)CCC(C(=O)O)C2 (stereo unspecified)
inactive: [10] 95 % of control | [11] 95 % of control | dose: 400.0 mg/kg/injection, schedule: Q04DX002 (ip), vehicle: Klucel (hydroxypropylcellulose) (HPC) 103 % of control

OCc1cccc2c1CCC2
inactive: dose: 12.5 mg/kg/injection, schedule: Q01DX001 (ip), vehicle: Klucel (hydroxypropylcellulose) (HPC) 100 % of control | dose: 12.5 mg/kg/injection, schedule: Q01DX009 (ip), vehicle: Klucel (hydroxypropylcellulose) (HPC) 104 % of control | dose: 25.0 mg/kg/injection, schedule: Q01DX001 (ip), vehicle: Klucel (hydroxypropylcellulose) (HPC) 100 % of control | dose: 25.0 mg/kg/injection, schedule: Q01DX009 (ip), vehicle: Klucel (hydroxypropylcellulose) (HPC) 96 % of control | dose: 50.0 mg/kg/injection, schedule: Q01DX001 (ip), vehicle: Klucel (hydroxypropylcellulose) (HPC) 102 % of control | [12] 94 % of control
